Data reported in patent publication US8841413B2, “Antidiabetic compounds” (Cadila Healthcare Limited, priority 2006, dated 2014).
Where two headings read alike, the source gives them in different places.

Key:
[1] = molecular target: T1, Human GLP-1 receptor (Homo sapiens, UniProt P43220); type: cell-based; settings: for activity in human GLP-1 receptor assay (in words): in vitro, dipeptides, FIG. 3
T1 construct: The full-length cDNA was cloned in pcDNA3.1(+); expressed in transfected cells
Experimental: The novel peptidomimetics were screened for Human GLP-1 receptor (HGLP-1 R) agonist activity (in vitro), using the cAMP cell-based assay, in stably transfected CHO/human GLP1R cells. […] CHO cells were grown in Ham's F12 medium containing L-Glutamine (2 mM), HEPES (25 mM), NaHCO3 (1.1 g/L) and supplemented with NewBorn Calf Serum (NBCS; 10%), Penicillin (50 U/ml (v/v)) and Streptomycin (50 ug/ml (v/v)). Cells were split every 3 days 1:8.
The cDNA encoding the human GLP-1 receptor was isolated by RT-PCR according to standard protocol. The full-length cDNA was cloned in pcDNA3.1(+). […] Clones expressing the receptor were generated by G418 (800 μg/ml active, Sigma) selection. The stable clones were thereafter maintained at 500 ug/ml (G418). The selected clone was used between passages 9-25 for cAMP assays.
The trypsin was inactivated using Ham's F12 medium containing 10% NBCS and the cells were suspended in 2 ml of complete medium. […] The medium was aspirated off from the 12 well plate and the cells were washed once using Ham's F12 (plain). […] The cells were incubated with the test compounds for 30 min in humidified atmosphere and 37° C. After the incubation, the medium was removed and cells were washed once with plain Ham's F12. Subsequently, the cells were lysed by adding 500 ul of ice cold 0.1 N HCl to each well and shaking for 30 minutes at 200 rpm. […] The total cAMP was estimated from the sample according to the manufacturer's protocol using Cyclic AMP immunoassay kit (R&D systems, Minneapolis. MN). The remaining supernatant is used to determine the protein concentration using micro BCA (Sigma). Data is calculated as percent of control (Vehicle: water) and expressed as Mean±SD.

[2] = molecular target: T2, human glucagon receptor (Homo sapiens, UniProt P47871); assay: In vitro human glucagon antagonist activity (inhibition of cAMP production), CHO/human glucagon R cells; type: cell-based; settings: in vitro, FIG. 3 / FIG. 4
T2 construct: The full-length cDNA was cloned in pcDNA3.1(Invitrogen); expressed in transfected cells
Experimental: CHO cells were grown in Ham's F12 medium containing L-Glutamine (2 mM), HEPES (25 mM), NaHCO3 (1.1 g/L) and supplemented with newborn Calf Serum (NBCS; 10%), Penicillin (50 U/ml (v/v)) and Streptomycin (50 ug/ml (v/v)). Cells were split every 3 days 1:8.
The full-length cDNA was cloned in pcDNA3.1(Invitrogen). […] Clones expressing the receptor were generated by G418 (800 μg/ml active, Sigma) selection. The stable clones were thereafter maintained at 500 ug/ml (G418). The selected clone was used between passages 9-25 for cAMP assays.
The trypsin was inactivated using Ham's F12 medium containing 10% NBCS and the cells were suspended in 2 ml of complete medium. […] The medium was aspirated off from the 12 well plate and the cells were washed once using Ham's F12 (plain). […] After the incubation; the medium was removed and cells were washed once with plain Ham's F12. Subsequently, the cells were lysed by adding 500 ul of ice cold 0.1 N HCl to each well and shaking for 30 minutes at 200 rpm. The cells were then scrapped, the lysate was collected in micro centrifuge tubes and centrifuged at 12000 rpm for 10 min to remove the debris. 300 ul of supernatant from each micro-centrifuge tube was then removed into a glass tube and dried under N2 for 30 min, for cAMP estimation. The total cAMP was estimated from the sample according to the manufacturer's protocol using Cyclic AMP immunoassay kit (R&D systems, Minneapolis: MN). The remaining supernatant is used to determine the protein concentration using micro BCA (Sigma). Data is calculated as percent of control (Vehicle: water) and expressed as Mean+SD.

[3] = Stability in simulated gastric fluid; type: in vitro ADME; settings: 2 μM, 37° C., pH 1.5, pepsin; for half-life: simulated gi fluid, read-out: half-life (t1/2) in simulated gastric fluid
Experimental: (§1) Reactions were terminated by the addition of TFA/H2O (15 mL, 10% (v/v)). […] The column was equilibrated with TFA/H2O, at a flow rate of 1 mL/min. […] The absorbance was monitored at 206 nm using UV detector and peaks were collected manually prior to ESI-MS analysis.

[4] = Stability against liver microsomes; type: in vitro ADME, human; settings: 2 μM, 37° C.
Experimental: as §1

[5] = molecular target: DPP IV (Homo sapiens, UniProt P27487); assay: Stability against DPP IV enzyme; type: in vitro ADME; settings: 2 μM, 37° C.; for half-life: read-out: half-life (t1/2) with DPP-IV enzyme
Experimental: as §1

[6] = Stability in human plasma; type: in vitro ADME; settings: 2 μM, 37° C.; for half-life: human, plasma, read-out: half-life (t1/2) in human plasma
Experimental: as §1

[7] = Stability in simulated intestinal fluid; type: in vitro ADME; settings: 2 μM, 37° C., pH 7.5; for half-life: simulated gi fluid, read-out: half-life (t1/2) in simulated intestinal fluid
Experimental: as §1

[8] = tested on: C57BL/6J mice; assay: Acute single dose 120-min time-course experiment, in vivo glucose reduction in C57BL/6J mice; set-up: unit not given here; settings: male C57BL/6J mice, Mean ± SEM
Experimental: All the animal experiments were carried out according to the internationally valid guidelines following approval by the ‘Zydus Research Center animal ethical committee’. […] Two days prior to the study, the animals were randomised and divided into 5 groups (n=6), based upon their fed glucose levels. On the day of experiment, food was withdrawn from all the cages, water was given ad-libitum and were kept for overnight fasting. Vehicle (normal saline)/test/standard compounds were administered intraperitoneally (i.p.) or orally, on a body weight basis. […] Blood samples were centrifuged and the separated serum was immediately subjected for the glucose estimation. Serum for insulin estimation was stored at −70° C. until used for the insulin estimation. The glucose estimation was carried out with DPEC-GOD/POD method (Ranbaxy Fine Chemicals Limited, Diagnostic division, India), using Spectramax-190, in 96-microwell plate reader (Molecular devices Corporation, Sunnyvale, Calif.). […] The AUC and BCAUC obtained from graphs were analyzed for one way ANOVA, followed by Dunnett's post test, using Graph Pad prism software. Furthermore, the insulin estimation was carried out using rat/mouse insulin ELISA kit (Linco research, Mo. USA).

T2 sequence (P47871 26-477): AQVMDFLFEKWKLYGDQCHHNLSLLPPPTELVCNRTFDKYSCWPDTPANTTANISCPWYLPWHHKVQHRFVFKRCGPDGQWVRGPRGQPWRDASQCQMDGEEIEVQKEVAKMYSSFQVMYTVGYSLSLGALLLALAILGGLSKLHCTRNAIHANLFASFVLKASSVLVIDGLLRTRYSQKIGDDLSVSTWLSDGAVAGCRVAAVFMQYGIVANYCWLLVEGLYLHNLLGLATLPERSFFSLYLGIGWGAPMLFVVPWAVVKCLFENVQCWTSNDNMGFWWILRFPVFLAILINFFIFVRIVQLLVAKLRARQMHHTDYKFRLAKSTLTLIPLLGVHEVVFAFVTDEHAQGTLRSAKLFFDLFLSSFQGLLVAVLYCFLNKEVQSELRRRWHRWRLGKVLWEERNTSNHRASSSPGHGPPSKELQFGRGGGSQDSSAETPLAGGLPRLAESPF
T1 sequence (P43220 24-463): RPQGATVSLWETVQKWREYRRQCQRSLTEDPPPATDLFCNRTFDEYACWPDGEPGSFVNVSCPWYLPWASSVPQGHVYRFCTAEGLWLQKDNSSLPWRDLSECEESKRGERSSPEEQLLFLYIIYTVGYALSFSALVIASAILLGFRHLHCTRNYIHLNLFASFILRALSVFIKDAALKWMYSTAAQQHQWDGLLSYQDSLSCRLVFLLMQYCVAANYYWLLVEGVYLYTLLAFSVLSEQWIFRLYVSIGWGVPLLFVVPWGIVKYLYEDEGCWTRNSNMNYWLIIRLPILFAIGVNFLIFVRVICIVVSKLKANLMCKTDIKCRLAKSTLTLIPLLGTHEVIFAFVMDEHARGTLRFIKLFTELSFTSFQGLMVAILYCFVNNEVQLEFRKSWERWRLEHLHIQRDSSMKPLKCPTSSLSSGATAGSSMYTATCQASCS
Chain of DPP IV (P27487 whole entry, species assumed): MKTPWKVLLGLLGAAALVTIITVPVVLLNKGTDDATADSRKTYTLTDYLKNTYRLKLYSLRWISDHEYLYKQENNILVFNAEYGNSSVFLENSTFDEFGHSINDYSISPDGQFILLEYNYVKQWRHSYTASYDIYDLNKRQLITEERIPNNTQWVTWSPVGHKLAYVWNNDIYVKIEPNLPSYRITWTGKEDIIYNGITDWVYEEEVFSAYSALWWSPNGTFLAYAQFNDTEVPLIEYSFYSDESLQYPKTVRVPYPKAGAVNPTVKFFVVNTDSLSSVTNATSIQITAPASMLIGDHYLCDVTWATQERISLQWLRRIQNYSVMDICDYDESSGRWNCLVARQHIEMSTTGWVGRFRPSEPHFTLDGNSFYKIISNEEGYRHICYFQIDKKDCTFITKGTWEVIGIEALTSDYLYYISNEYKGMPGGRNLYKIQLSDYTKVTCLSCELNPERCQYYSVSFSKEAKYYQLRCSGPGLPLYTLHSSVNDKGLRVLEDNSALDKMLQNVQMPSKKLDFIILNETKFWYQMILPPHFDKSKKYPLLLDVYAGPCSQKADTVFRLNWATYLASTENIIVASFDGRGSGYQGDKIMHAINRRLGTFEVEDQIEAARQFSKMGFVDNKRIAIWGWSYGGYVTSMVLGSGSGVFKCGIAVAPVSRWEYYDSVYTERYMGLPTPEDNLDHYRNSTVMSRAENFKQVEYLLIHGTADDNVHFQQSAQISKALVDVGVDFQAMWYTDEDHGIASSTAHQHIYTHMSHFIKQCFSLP

Bip(OMe)-Bip(Pyr)
activity in human GLP-1 receptor assay (in words) [1]: antagonistic activity
activity in human Glucagon receptor assay (in words) [2]: antagonistic activity

CCc1cc(OC)ccc1-c1ccc(CC(NC(=O)[C@H](CC(=O)O)NC(=O)[C@H](CO)NC(=O)[C@@H](NC(=O)C(C)(Cc2ccccc2F)NC(=O)[C@@H](NC(=O)CNC(=O)[C@H](CCC(N)=O)NC(=O)C2(NC(=O)[C@@H](N)Cc3c[nH]cn3)CC2)[C@@H](C)O)[C@@H](C)O)C(=O)NC(Cc2ccc(-c3ccccc3F)cc2)C(N)=O)cc1 (single isomer, unassigned) [compound 35]
% degradation in 24 h when incubated with simulated gastric fluid [3]: 00%
half-life [3]: > 24 h
Human GLP-1 R activity (cAMP release), % activity with respect to control ([1]; 1 nM test compound): 99 ± 0.02%
Human GLP-1 R activity (cAMP release), % activity with respect to control ([1]; 10 nM test compound): 99 ± 0.26%
Human GLP-1 R activity (cAMP release), % activity with respect to control ([1]; 100 nM test compound): 99 ± 0.31%
Human GLP-1 R activity (cAMP release), % activity with respect to control ([1]; 1 μM test compound): 99 ± 0.60%
Human GLP-1 R activity (cAMP release), % activity with respect to control ([1]; 10 μM test compound): 99 ± 0.08%
half-life (t1/2) with liver microsomes [4]: (5) h
% degradation in 24 h when incubated with liver microsomes [4]: 26%
% degradation in 24 h when incubated with DPP-IV enzyme [5]: 00%
half-life [5]: > 24 h
% degradation in 24 h when incubated with human plasma [6]: 00%
half-life [6]: > 24 h
% degradation in 24 h when incubated with simulated intestinal fluid [7]: 00%
half-life [7]: > 24 h

CCc1cc(OC)ccc1-c1ccc(CC(NC(=O)[C@H](CC(=O)O)NC(=O)[C@H](CO)NC(=O)[C@@H](NC(=O)C(C)(Cc2ccccc2F)NC(=O)[C@@H](NC(=O)CNC(=O)[C@H](CCC(N)=O)NC(=O)C(C)(C)NC(=O)[C@@H](N)Cc2c[nH]cn2)[C@@H](C)O)[C@@H](C)O)C(=O)NC(Cc2ccc(-c3ccccc3C)cc2)C(N)=O)cc1 (single isomer, unassigned) [compound 29]
% degradation in 24 h when incubated with simulated gastric fluid [3]: 00%
half-life [3]: > 24 h
Human GLP-1 R activity (cAMP release), % activity with respect to control ([1]; 1 nM test compound): 99 ± 0.12%
Human GLP-1 R activity (cAMP release), % activity with respect to control ([1]; 10 nM test compound): 99 ± 0.15%
Human GLP-1 R activity (cAMP release), % activity with respect to control ([1]; 100 nM test compound): 99 ± 0.18%
Human GLP-1 R activity (cAMP release), % activity with respect to control ([1]; 1 μM test compound): 99 ± 0.03%
Human GLP-1 R activity (cAMP release), % activity with respect to control ([1]; 10 μM test compound): 99 ± 0.09%
half-life (t1/2) with liver microsomes [4]: (5) h
% degradation in 24 h when incubated with liver microsomes [4]: 35%
% degradation in 24 h when incubated with DPP-IV enzyme [5]: 00%
half-life [5]: > 24 h
% degradation in 24 h when incubated with human plasma [6]: 00%
half-life [6]: > 24 h
% degradation in 24 h when incubated with simulated intestinal fluid [7]: 00%
half-life [7]: > 24 h

Bip(OMe)-Bip(2Me)
activity in human GLP-1 receptor assay (in words) [1]: antagonistic activity
activity in human Glucagon receptor assay (in words) [2]: antagonistic activity

Bip(OMe)-Bip(2F)
activity in human GLP-1 receptor assay (in words) [1]: antagonistic activity
activity in human Glucagon receptor assay (in words) [2]: antagonistic activity

CCc1cc(OC)ccc1-c1ccc(CC(NC(=O)[C@H](CC(=O)O)NC(=O)[C@H](CO)NC(=O)[C@@H](NC(=O)C(C)(Cc2ccccc2F)NC(=O)[C@@H](NC(=O)CNC(=O)[C@H](CCC(N)=O)NC(=O)[C@H](C)NC(=O)[C@@H](N)Cc2c[nH]cn2)[C@@H](C)O)[C@@H](C)O)C(=O)NC(Cc2ccc(-c3ccccc3C(F)(F)F)cc2)C(N)=O)cc1 (single isomer, unassigned) [Seq. ID. No. 28, HAQGT-(α-Me-2F-Phe)-TSD-Bip(OMe)-Bip(2CF3)]
blood glucose level ([8]; 20 nM/kg, i.p, 0 min): 182 ± 2.1
blood glucose level ([8]; 20 nM/kg, i.p, 30 min): 121 ± 2.9
blood glucose level ([8]; 20 nM/kg, i.p, 60 min): 130 ± 3.1
blood glucose level ([8]; 20 nM/kg, i.p, 120 min): 138 ± 2.4

CCc1cc(OC)ccc1-c1ccc(CC(NC(=O)[C@H](CC(=O)O)NC(=O)[C@H](CO)NC(=O)[C@@H](NC(=O)C(C)(Cc2ccccc2F)NC(=O)[C@@H](NC(=O)CNC(=O)[C@H](CCC(N)=O)NC(=O)C(C)(C)NC(=O)[C@@H](N)Cc2c[nH]cn2)[C@@H](C)O)[C@@H](C)O)C(=O)NC(Cc2ccc(-c3ccccc3C)nc2)C(N)=O)cc1 (single isomer, unassigned) [Seq. ID. No. 30, H-Aib-QGT-(α-Me-2F-Phe)-TSD-Bip(OMe)-Bip(Pyr)]
blood glucose level ([8]; 10 nM/kg, i.p, 0 min): 182 ± 2.1
blood glucose level ([8]; 10 nM/kg, i.p, 30 min): 111 ± 2.1
blood glucose level ([8]; 10 nM/kg, i.p, 60 min): 112 ± 2.8
blood glucose level ([8]; 10 nM/kg, i.p, 120 min): 113 ± 2.2
blood glucose level ([8]; 2 μM/kg, oral, 0 min): 183 ± 2.4
blood glucose level ([8]; 2 μM/kg, oral, 30 min): 116 ± 3.1
blood glucose level ([8]; 2 μM/kg, oral, 60 min): 112 ± 4.8
blood glucose level ([8]; 2 μM/kg, oral, 120 min): 110 ± 2.5

Bip(OMe)-Bip(2CF3)
activity in human GLP-1 receptor assay (in words) [1]: antagonistic activity
activity in human Glucagon receptor assay (in words) [2]: antagonistic activity

CCc1cc(OC)ccc1-c1ccc(CC(NC(=O)[C@H](CC(=O)O)NC(=O)[C@H](CO)NC(=O)[C@@H](NC(=O)C(C)(Cc2ccccc2F)NC(=O)[C@@H](NC(=O)CNC(=O)[C@H](CCC(N)=O)NC(=O)C(C)(C)NC(=O)[C@@H](N)Cc2c[nH]cn2)[C@@H](C)O)[C@@H](C)O)C(=O)NC(Cc2ccc(-c3ccccc3F)cc2)C(N)=O)cc1 (single isomer, unassigned) [Seq. ID. No. 31, H-Aib-QGT-(α-Me-2F-Phe)-TSD-Bip(OMe)-Bip(2F)]
blood glucose level ([8]; 10 nM/kg, i.p, 0 min): 183 ± 2.2
blood glucose level ([8]; 10 nM/kg, i.p, 30 min): 113 ± 2.8
blood glucose level ([8]; 10 nM/kg, i.p, 60 min): 113 ± 2.9
blood glucose level ([8]; 10 nM/kg, i.p, 120 min): 114 ± 2.0
blood glucose level ([8]; 2 μM/kg, oral, 0 min): 185 ± 2.3
blood glucose level ([8]; 2 μM/kg, oral, 30 min): 115 ± 3.8
blood glucose level ([8]; 2 μM/kg, oral, 60 min): 113 ± 4.9
blood glucose level ([8]; 2 μM/kg, oral, 120 min): 109 ± 2.2
